Measurements as given in PubChem BioAssay AID330 (DTP/NCI, 2004).
Values joined by “and” are separate entries in the source; they are usually repeats but may differ in a detail not shown here. Equal values may be shown once. Inconclusive results and toxic doses are left out.

Test system: P388 leukemia ip, CD2F1 mice, survival T/C
Experiment: NCI In Vivo Anticancer Drug Screen. Data for tumor model P388 Leukemia (intraperitoneal) in CD2F1 (CDF1) mice
Conditions: endpoint: median survival time, higher = longer survival
Summary of the method: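 Mice carrying the transplanted tumor received test compound or vehicle. Survival was recorded in each group, and the value is the treated-group measurement divided by that of the vehicle-treated control group.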

[1] = dose: 60.0 mg/kg/injection, schedule: Q01DX005 (ip), vehicle: saline with Tween-80
[2] = dose: 50.0 mg/kg/injection, schedule: Q01DX005 (ip), vehicle: Klucel (hydroxypropylcellulose) (HPC)
[3] = dose: 100.0 mg/kg/injection, schedule: Q01DX005 (ip), vehicle: Klucel (hydroxypropylcellulose) (HPC)
[4] = dose: 50.0 mg/kg/injection, schedule: Q01DX009 (ip), vehicle: Klucel (hydroxypropylcellulose) (HPC)
[5] = dose: 50.0 mg/kg/injection, schedule: Q01DX009 (ip), vehicle: saline
[6] = dose: 100.0 mg/kg/injection, schedule: Q01DX009 (ip), vehicle: saline
[7] = dose: 200.0 mg/kg/injection, schedule: Q01DX009 (ip), vehicle: saline
[8] = dose: 50.0 mg/kg/injection, schedule: Q01DX009 (ip), vehicle: saline with Tween-80
[9] = dose: 25.0 mg/kg/injection, schedule: Q04DX003 (ip), vehicle: saline with Tween-80
[10] = dose: 50.0 mg/kg/injection, schedule: Q04DX003 (ip), vehicle: saline with Tween-80
[11] = dose: 100.0 mg/kg/injection, schedule: Q04DX003 (ip), vehicle: saline with Tween-80
[12] = dose: 200.0 mg/kg/injection, schedule: Q01DX005 (ip), vehicle: Klucel (hydroxypropylcellulose) (HPC)
[13] = dose: 100.0 mg/kg/injection, schedule: Q01DX009 (ip), vehicle: Klucel (hydroxypropylcellulose) (HPC)
[14] = dose: 200.0 mg/kg/injection, schedule: Q01DX009 (ip), vehicle: Klucel (hydroxypropylcellulose) (HPC)

CCN1C(=O)C=CC1=O
T/C (dose: 1.56 mg/kg/injection, schedule: Q04DX003 (ip), vehicle: saline with Tween-80): 109 % of control and 98 % of control | T/C (dose: 3.12 mg/kg/injection, schedule: Q04DX003 (ip), vehicle: saline with Tween-80): 99 % of control and 96 % of control | T/C (dose: 6.25 mg/kg/injection, schedule: Q04DX003 (ip), vehicle: saline with Tween-80): 99 % of control and 95 % of control

C/C(=C\C(=O)Nc1ccc(S(=O)(=O)F)cc1)c1ccc([N+](=O)[O-])cc1
T/C [1]: 100 % of control | T/C (dose: 120.0 mg/kg/injection, schedule: Q01DX005 (ip), vehicle: saline with Tween-80): 102 % of control | T/C (dose: 240.0 mg/kg/injection, schedule: Q01DX005 (ip), vehicle: saline with Tween-80): 90 % of control

CCN(CC)CCOC(=O)C(OCCC(C)C)(c1ccccc1)c1ccccc1
T/C [2]: 113 % of control | T/C [3]: 113 % of control

NC(=S)N/N=C/c1c(Cl)nc2n1CCS2
T/C (dose: 100.0 mg/kg/injection, schedule: Q01DX001 (ip), vehicle: Klucel (hydroxypropylcellulose) (HPC)): 94 % of control | T/C (dose: 200.0 mg/kg/injection, schedule: Q01DX001 (ip), vehicle: Klucel (hydroxypropylcellulose) (HPC)): 93 % of control | T/C (dose: 400.0 mg/kg/injection, schedule: Q01DX001 (ip), vehicle: Klucel (hydroxypropylcellulose) (HPC)): 92 % of control

O=S(=O)(Cl)CCCCS(=O)(=O)Cl
T/C (dose: 12.5 mg/kg/injection, schedule: Q01DX009 (ip), vehicle: Klucel (hydroxypropylcellulose) (HPC)): 103 % of control | T/C (dose: 25.0 mg/kg/injection, schedule: Q01DX009 (ip), vehicle: Klucel (hydroxypropylcellulose) (HPC)): 91 % of control | T/C [4]: 99 % of control and 101 % of control

CCN(CC)CCNc1ccc(COC(N)=O)c2sc3ccccc3c(=O)c12
T/C (dose: 100.0 mg/kg/injection, schedule: Q04DX003 (ip), vehicle: saline): 117 % of control | T/C (dose: 200.0 mg/kg/injection, schedule: Q04DX003 (ip), vehicle: saline): 122 % of control

O=C(C1CC2C=CC1C2)N1CCCCC1 (configuration not stated)
T/C [5]: 90 % of control | T/C [6]: 91 % of control | T/C [7]: 98 % of control

CB1NN=C(C)c2ccsc21
T/C [8]: 110 % of control

CC1(C)O[C@H]2CC(=O)OC[C@]23[C@H]2CC[C@@]4(C)C(c5ccoc5)OC(=O)[C@H]5O[C@]54[C@]2(C)[C@@H](OC(=O)CCl)C[C@@H]13 (some centres not stated)
T/C (dose: 0.5 mg/kg/injection, schedule: Q01DX009 (ip), vehicle: saline + alcohol): 113 % of control | T/C (dose: 1.0 mg/kg/injection, schedule: Q01DX009 (ip), vehicle: saline + alcohol): 111 % of control

CC(=O)OCC(=O)[C@@]1(O)CC[C@H]2[C@@H]3CCC4=CC(=O)C=C[C@]4(C)[C@H]3C(=O)C[C@@]21C
T/C [9]: 95 % of control | T/C [10]: 104 % of control | T/C [11]: 95 % of control

C1CC[N-]CC1.C1CC[N-]CC1.C1CC[N-]CC1.C1CC[N-]CC1.[Pt+4]
T/C (dose: 2.0 mg/kg/injection, schedule: Q01DX009 (ip), vehicle: saline): 95 % of control | T/C (dose: 4.0 mg/kg/injection, schedule: Q01DX009 (ip), vehicle: saline): 89 % of control | T/C (dose: 8.0 mg/kg/injection, schedule: Q01DX009 (ip), vehicle: saline): 93 % of control

CCOC(=O)C1=C(C)OC(N)=C(C#N)C12C(=O)N(C)C(=O)c1ccccc12 (configuration not stated)
T/C [2]: 101 % of control | T/C [3]: 103 % of control | T/C [12]: 96 % of control

C=Cn1c([N+](=O)[O-])cnc1/C=C/c1ccc(C(=O)NC(C)CC)cc1 (configuration not stated)
T/C (dose: 100.0 mg/kg/injection, schedule: Q04DX002 (ip), vehicle: gum acacia): 93 % of control | T/C (dose: 200.0 mg/kg/injection, schedule: Q04DX002 (ip), vehicle: gum acacia): 91 % of control | T/C (dose: 400.0 mg/kg/injection, schedule: Q04DX002 (ip), vehicle: gum acacia): 96 % of control

COC(CC[S+](C)C)C(=O)O (configuration not stated)
T/C (dose: 32.0 mg/kg/injection, schedule: Q01DX005 (ip), vehicle: water): 105 % of control | T/C (dose: 64.0 mg/kg/injection, schedule: Q01DX005 (ip), vehicle: water): 97 % of control | T/C (dose: 128.0 mg/kg/injection, schedule: Q01DX005 (ip), vehicle: water): 102 % of control | T/C (dose: 256.0 mg/kg/injection, schedule: Q01DX005 (ip), vehicle: water): 101 % of control

O=C(NC(Cc1ccc([N+](=O)[O-])cc1)C(=O)O)c1ccccc1 (configuration not stated)
T/C (dose: 25.0 mg/kg/injection, schedule: Q01DX009 (ip), vehicle: other): 104 % of control | T/C (dose: 50.0 mg/kg/injection, schedule: Q01DX009 (ip), vehicle: other): 110 % of control | T/C (dose: 100.0 mg/kg/injection, schedule: Q01DX009 (ip), vehicle: other): 104 % of control

C=CCN(CC=C)C1C(O)CCOC1OC (configuration not stated)
T/C (dose: 60.0 mg/kg/injection, schedule: Q01DX005 (ip), vehicle: saline): 109 % of control and 101 % of control | T/C (dose: 120.0 mg/kg/injection, schedule: Q01DX005 (ip), vehicle: saline): 107 % of control and 103 % of control | T/C (dose: 240.0 mg/kg/injection, schedule: Q01DX005 (ip), vehicle: saline): 109 % of control and 102 % of control

O=C(SCc1ccccc1)c1cccnc1
T/C (dose: 25.0 mg/kg/injection, schedule: Q01DX009 (ip), vehicle: saline with Tween-80): 105 % of control | T/C [8]: 110 % of control | T/C (dose: 100.0 mg/kg/injection, schedule: Q01DX009 (ip), vehicle: saline with Tween-80): 100 % of control

O=P(O/C(=C\c1ccccc1)c1ccccc1)(c1ccccc1)c1ccccc1
T/C (dose: 60.0 mg/kg/injection, schedule: Q01DX005 (ip), vehicle: Klucel (hydroxypropylcellulose) (HPC)): 91 % of control | T/C (dose: 120.0 mg/kg/injection, schedule: Q01DX005 (ip), vehicle: Klucel (hydroxypropylcellulose) (HPC)): 90 % of control | T/C (dose: 240.0 mg/kg/injection, schedule: Q01DX005 (ip), vehicle: Klucel (hydroxypropylcellulose) (HPC)): 90 % of control

CC1C(c2ccccc2)OCN1C (configuration not stated)
T/C (dose: 12.5 mg/kg/injection, schedule: Q01DX005 (ip), vehicle: saline): 110 % of control and 88 % of control | T/C (dose: 25.0 mg/kg/injection, schedule: Q01DX005 (ip), vehicle: saline): 100 % of control and 116 % of control | T/C (dose: 50.0 mg/kg/injection, schedule: Q01DX005 (ip), vehicle: saline): 110 % of control [middle of 5 runs] | T/C (dose: 100.0 mg/kg/injection, schedule: Q01DX005 (ip), vehicle: saline): 118 % of control and 109 % of control | T/C (dose: 200.0 mg/kg/injection, schedule: Q01DX005 (ip), vehicle: saline): 116 % of control

COC(=O)NC[Si](C)(C)C
T/C (dose: 15.0 mg/kg/injection, schedule: Q01DX005 (ip), vehicle: saline with Tween-80): 105 % of control | T/C (dose: 30.0 mg/kg/injection, schedule: Q01DX005 (ip), vehicle: saline with Tween-80): 106 % of control | T/C [1]: 103 % of control

Oc1ccc(C2C=CCC2)cc1C1C=CCC1 (configuration not stated)
T/C [13]: 106 % of control | T/C [14]: 116 % of control | T/C (dose: 400.0 mg/kg/injection, schedule: Q01DX009 (ip), vehicle: Klucel (hydroxypropylcellulose) (HPC)): 115 % of control

O=C(N1C2c3ccsc3[C@@H](O)C21)C(F)(F)F (some centres not stated)
T/C (dose: 50.0 mg/kg/injection, schedule: Q01DX005 (ip), vehicle: saline with Tween-80): 88 % of control | T/C (dose: 100.0 mg/kg/injection, schedule: Q01DX005 (ip), vehicle: saline with Tween-80): 95 % of control | T/C (dose: 200.0 mg/kg/injection, schedule: Q01DX005 (ip), vehicle: saline with Tween-80): 100 % of control

Cc1noc(NCc2ccccc2)c1C
T/C [11]: 104 % of control | T/C (dose: 200.0 mg/kg/injection, schedule: Q04DX003 (ip), vehicle: saline with Tween-80): 101 % of control | T/C (dose: 400.0 mg/kg/injection, schedule: Q04DX003 (ip), vehicle: saline with Tween-80): 100 % of control

COC(=O)NC(=S)Nc1nnc(C)s1
T/C [9]: 103 % of control | T/C [10]: 256 % of control | T/C [11]: 105 % of control

COc1ccc(CCN2C(=O)C(=O)N(C3CCCCC3)C2=O)cc1OC
T/C [4]: 93 % of control | T/C [13]: 95 % of control | T/C [14]: 100 % of control

NC(S(=O)(=O)O)S(=O)(=O)O
T/C [5]: 105 % of control | T/C [6]: 110 % of control | T/C [7]: 96 % of control

C/C=C/CCC(=O)CC(O)CCO (configuration not stated)
T/C (dose: 12.5 mg/kg/injection, schedule: Q01DX005 (ip), vehicle: Klucel (hydroxypropylcellulose) (HPC)): 101 % of control | T/C (dose: 25.0 mg/kg/injection, schedule: Q01DX005 (ip), vehicle: Klucel (hydroxypropylcellulose) (HPC)): 98 % of control | T/C [2]: 104 % of control and 89 % of control | T/C [3]: 104 % of control | T/C [12]: 101 % of control | T/C (dose: 400.0 mg/kg/injection, schedule: Q01DX005 (ip), vehicle: Klucel (hydroxypropylcellulose) (HPC)): 111 % of control
